From patent publication US20210268129A1, “Theranostic Radiophotodynamic Therapy Nanoparticles” (priority 2018, published 2021)

How the values were obtained:
[1] = tested on: prostate cancer cell line DU145
Procedure: (§1) To confirm, baseline toxicity experiments were conducted with the fully assembled nanoparticles and its constituents. […] MTT assays detected changes in cell proliferation and viability.

[2] = tested on: normal skin fibroblast cell line GM38
Procedure: as §1

[3] = tested on: prostate cancer cell line PC3
Procedure: as §1

Measured: baseline cytotoxicity over increasing doses

C=CC1=C(C)c2cc3[nH]c(cc4nc(cc5[nH]c(cc1n2)c(C)c5CCC(=O)O)C(CCC(=O)O)=C4C)c(C)c3C=C [PPIX, protoporphyrin IX]
No appreciable differences: all assays above
